Reference: patent publication US10435399B2, “HDAC6 inhibitory heterocyclic compound” (TAKEDA PHARMACEUTICAL COMPANY LIMITED, priority 2017, dated 2019)

These molecules were tested against T1, HDAC6 enzyme (Homo sapiens, UniProt Q9UBN7) (assay: HDAC6 enzyme inhibitory activity (HDAC-Glo I/II Assay kit)). Conditions: 10 μM; wells without enzyme = 100% inhibition.
T1 construct: transducing full length HDAC6 gene into Sf-9 insect cells; GST; purchased SignalChem; host or cells: Sf-9 insect cells
T1 sequence (Q9UBN7 1-1215): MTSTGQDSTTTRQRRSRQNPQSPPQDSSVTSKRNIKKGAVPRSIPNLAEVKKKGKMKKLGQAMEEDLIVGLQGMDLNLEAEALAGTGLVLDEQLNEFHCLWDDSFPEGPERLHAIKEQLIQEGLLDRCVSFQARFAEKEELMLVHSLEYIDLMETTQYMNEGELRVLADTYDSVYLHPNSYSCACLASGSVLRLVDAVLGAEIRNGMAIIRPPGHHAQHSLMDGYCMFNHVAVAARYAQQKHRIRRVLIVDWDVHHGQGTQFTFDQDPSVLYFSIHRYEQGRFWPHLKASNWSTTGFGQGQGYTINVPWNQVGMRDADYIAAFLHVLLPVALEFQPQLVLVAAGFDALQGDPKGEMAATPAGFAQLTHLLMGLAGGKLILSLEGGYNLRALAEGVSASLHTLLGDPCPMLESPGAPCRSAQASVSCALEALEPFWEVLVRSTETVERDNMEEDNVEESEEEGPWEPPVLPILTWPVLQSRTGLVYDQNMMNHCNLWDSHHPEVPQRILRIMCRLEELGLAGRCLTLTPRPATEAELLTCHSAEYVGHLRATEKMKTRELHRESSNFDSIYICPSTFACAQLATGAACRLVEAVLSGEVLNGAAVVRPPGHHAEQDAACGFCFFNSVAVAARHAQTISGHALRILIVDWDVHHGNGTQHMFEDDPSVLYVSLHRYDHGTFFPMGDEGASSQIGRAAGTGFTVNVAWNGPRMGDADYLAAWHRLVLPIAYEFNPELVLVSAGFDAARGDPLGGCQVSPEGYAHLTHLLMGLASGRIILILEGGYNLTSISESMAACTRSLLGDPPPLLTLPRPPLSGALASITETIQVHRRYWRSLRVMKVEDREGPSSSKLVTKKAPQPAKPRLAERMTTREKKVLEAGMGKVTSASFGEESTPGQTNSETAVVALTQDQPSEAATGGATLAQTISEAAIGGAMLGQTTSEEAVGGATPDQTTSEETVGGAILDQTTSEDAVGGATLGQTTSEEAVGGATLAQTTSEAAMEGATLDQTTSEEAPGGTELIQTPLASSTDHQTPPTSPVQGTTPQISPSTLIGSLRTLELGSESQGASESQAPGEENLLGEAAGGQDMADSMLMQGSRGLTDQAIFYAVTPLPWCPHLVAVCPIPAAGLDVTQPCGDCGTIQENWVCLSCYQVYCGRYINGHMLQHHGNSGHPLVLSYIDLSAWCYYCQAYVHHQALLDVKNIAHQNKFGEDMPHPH
Assay type: biochemical
How it was run: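 Test compound is preincubated 60 min at RT with full-length insect-cell HDAC6 in Tris-HCl pH 7.5 with 135 mM NaCl and 1 mM MgCl2. A 20 min room-temperature HDAC-Glo reaction follows, with luminescent read-out.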

Row | Compound | HDAC6 inhibitory rate (%) (10 μM)
1 | Cc1ccc(C2CC(F)(F)CCN2N2Cc3ccc(-c4nnc(C(F)F)o4)cc3C2=O)nc1 (stereo not drawn) [Example 615, 6-(5-(difluoromethyl)-1,3,4-oxadiazol-2-yl)-2-(4,4-difluoro-2-(5-methylpyridin-2-yl)piperidin-1-yl)isoindolin-1-one (optical isomer)] | 99

Same assay, conditions: 10 μM; wells without enzyme = 100% inhibition; read-out: HDAC6 inhibitory rate (%) (10 μM)

Row | Compound | inhibition at 10 µM [%]
2 | O=C1c2cc(-c3nnc(C(F)F)o3)ccc2CN1[C@@H]1CCCC[C@H]1c1nnc2ccccn12 [Example 547, 6-(5-(difluoromethyl)-1,3,4-oxadiazol-2-yl)-2-((1R,2R)-2-([1,2,4]triazolo[4,3-a]pyridin-3-yl)cyclohexyl)isoindolin-1-one] | 100
3 | O=C1c2cc(-c3nnc(C(F)F)o3)ccc2CN1[C@@H]1CCCC[C@H]1Nc1ccccn1 [Example 521, 6-(5-(difluoromethyl)-1,3,4-oxadiazol-2-yl)-2-((1R,2R)-2-(pyridin-2-ylamino)cyclohexyl)isoindolin-1-one] | 99
4 | COC(=O)N[C@@H]1CCCC[C@H]1N1Cc2ncc(-c3nnc(C(F)F)o3)cc2C1=O [Example 161, methyl ((1R,2R)-2-(3-(5-(difluoromethyl)-1,3,4-oxadiazol-2-yl)-5-oxo-5,7-dihydro-6H-pyrrolo[3,4-b]pyridin-6-yl)cyclohexyl)carbamate] | 99
5 | CCC1(C(=O)N[C@@H]2CCCC[C@H]2N2Cc3ccc(-c4nnc(C(F)F)o4)cc3C2=O)COC1 [Example 92, N-((1R,2R)-2-(6-(5-(difluoromethyl)-1,3,4-oxadiazol-2-yl)-1-oxo-1,3-dihydro-2H-isoindol-2-yl)cyclohexyl)-3-ethyloxetane-3-carboxamide] | 101
6 | Cn1cc(C2CCN(CC(F)(F)C(F)(F)F)CC2)c(N2Cc3ccc(-c4nnc(C(F)F)o4)cc3C2=O)n1 [Example 550, 6-(5-(difluoromethyl)-1,3,4-oxadiazol-2-yl)-2-(1-methyl-4-(1-(2,2,3,3,3-pentafluoropropyl)piperidin-4-yl)-1H-pyrazol-3-yl)isoindolin-1-one] | 99
7 | CC(C)(C)OC(=O)N1CC(F)(F)C[C@H]1CN1Cc2c(F)cc(-c3nnc(C(F)F)o3)cc2C1=O [Example 331, tert-butyl (2S)-2-((6-(5-(difluoromethyl)-1,3,4-oxadiazol-2-yl)-4-fluoro-1-oxo-1,3-dihydro-2H-isoindol-2-yl)methyl)-4,4-difluoropyrrolidine-1-carboxylate] | 97
8 | N#Cc1cccc(-c2cc(F)ccc2N2Cc3ccc(-c4nnc(C(F)F)o4)cc3C2=O)c1 [Example 249, 2′-(6-(5-(difluoromethyl)-1,3,4-oxadiazol-2-yl)-1-oxo-1,3-dihydro-2H-isoindol-2-yl)-5′-fluorobiphenyl-3-carbonitrile] | 100
9 | O=C1c2ccccc2CN1[C@@H]1CCCC[C@H]1N1Cc2ncc(-c3nnc(C(F)F)o3)cc2C1=O [Example 179, 3-(5-(difluoromethyl)-1,3,4-oxadiazol-2-yl)-6-((1R,2R)-2-(1-oxo-1,3-dihydro-2H-isoindol-2-yl)cyclohexyl)-6,7-dihydro-5H-pyrrolo[3,4-b]pyridin-5-one] | 100
10 | O=C(O[C@@H]1CCCC[C@H]1N1Cc2ccc(-c3nnc(C(F)F)o3)cc2C1=O)N1CCCC1 [Example 233, (1R,2R)-2-(6-(5-(difluoromethyl)-1,3,4-oxadiazol-2-yl)-1-oxo-1,3-dihydro-2H-isoindol-2-yl)-cyclohexyl pyrrolidine-1-carboxylate] | 100
11 | O=C(c1cccc(-c2ccccc2N2Cc3ccc(-c4nnc(C(F)F)o4)cc3C2=O)c1)N1CCCC1 [Example 325, 6-(5-(difluoromethyl)-1,3,4-oxadiazol-2-yl)-2-(3′-(pyrrolidin-1-ylcarbonyl)-biphenyl-2-yl)isoindolin-1-one] | 100
12 | O=C1c2cc(-c3nnc(C(F)F)o3)ccc2CN1CCOc1ccccc1 [Example 209, 6-(5-(difluoromethyl)-1,3,4-oxadiazol-2-yl)-2-(2-phenoxyethyl)isoindolin-1-one] | 107
13 | O=C1c2cc(-c3nnc(C(F)F)o3)cnc2CN1[C@@H]1CCCC[C@@H]1NC(=O)C(F)(F)C(F)(F)F [Example 661, N-[(1S,2R)-2-{3-[5-(difluoromethyl)-1,3,4-oxadiazol-2-yl]-5-oxo-5,7-dihydro-6H-pyrrolo[3,4-b]pyridin-6-yl}cyclohexyl]-2,2,3,3,3-pentafluoropropanamide] | 99
14 | O=C1c2cc(-c3nnc(C(F)F)o3)ccc2CN1c1ccccc1-c1cc(F)cc(F)c1 [Example 284, 2-(3′,5′-difluorobiphenyl-2-yl)-6-(5-(difluoromethyl)-1,3,4-oxadiazol-2-yl)isoindolin-1-one] | 101
15 | O=C1c2cc(-c3nnc(C(F)F)o3)cc(F)c2CN1[C@@H]1CCOC[C@@H]1NCC(F)(F)F [Example 374, 6-(5-(difluoromethyl)-1,3,4-oxadiazol-2-yl)-4-fluoro-2-((3R,4R)-3-((2,2,2-trifluoroethyl)amino)tetrahydro-2H-pyran-4-yl)isoindolin-1-one] | 99
16 | O=C1c2cc(-c3nnc(C(F)F)o3)ccc2CN1[C@@H]1CCCC[C@H]1n1cccn1 (relative stereo) [Example 528, 6-(5-(difluoromethyl)-1,3,4-oxadiazol-2-yl)-2-((1R*,2R*)-2-(1H-pyrazol-1-yl)cyclohexyl)isoindolin-1-one (optical isomer)] | 99
17 | O=C1c2cc(-c3nnc(C(F)F)o3)cnc2CN1Cc1cccc(C(F)(F)F)c1 [Example 355] | 100
18 | O=C1COCCN1[C@@H]1CCCC[C@H]1N1Cc2ccc(-c3nnc(C(F)F)o3)cc2C1=O [Example 30, 6-(5-(difluoromethyl)-1,3,4-oxadiazol-2-yl)-2-((1R,2R)-2-(3-oxomorpholin-4-yl)cyclohexyl) isoindolin-1-one] | 97
19 | N#Cc1cccc(-c2ccccc2N2Cc3ccc(-c4nnc(C(F)F)o4)cc3C2=O)c1 [Example 169, 2′-(6-(5-(difluoromethyl)-1,3,4-oxadiazol-2-yl)-1-oxo-1,3-dihydro-2H-isoindol-2-yl)biphenyl-3-carbonitrile] | 101
20 | N[C@@H]1CCCC[C@H]1N1Cc2ccc(-c3nnc(C(F)F)o3)cc2C1=O [Example 38, 2-((1R,2R)-2-aminocyclohexyl)-6-(5-(difluoromethyl)-1,3,4-oxadiazol-2-yl)isoindolin-1-one] | 91
21 | O=C1c2cc(-c3nnc(C(F)F)o3)cc(F)c2CN1C[C@H]1COCCN1S(=O)(=O)c1cccc(F)c1 [Example 265, 6-(5-(difluoromethyl)-1,3,4-oxadiazol-2-yl)-4-fluoro-2-(((3S)-4-((3-fluorophenyl)-sulfonyl)morpholin-3-yl)-methyl)isoindolin-1-one] | 98
22 | O=C1c2cc(-c3nnc(C(F)F)o3)ccc2CN1c1ccccc1-c1cnc2occc2c1 [Example 303, 6-(5-(difluoromethyl)-1,3,4-oxadiazol-2-yl)-2-(2-(furo-[2,3-b]pyridin-5-yl)phenyl)-isoindolin-1-one] | 99
23 | O=C1OCCN1[C@@H]1CCCC[C@H]1N1Cc2c(F)cc(-c3nnc(C(F)F)o3)cc2C1=O [Example 138, 6-(5-(difluoromethyl)-1,3,4-oxadiazol-2-yl)-4-fluoro-2-((1R,2R)-2-(2-oxo-1,3-oxazolidin-3-yl)cyclohexyl)isoindolin-1-one] | 98
24 | O=C1CCCN1c1ccccc1N1Cc2ccc(-c3nnc(C(F)F)o3)cc2C1=O [Example 37, 6-(5-(difluoromethyl)-1,3,4-oxadiazol-2-yl)-2-(2-(2-oxopyrrolidin-1-yl)phenyl)isoindolin-1-one] | 99
25 | O=C1c2cc(-c3nnc(C(F)F)o3)cc(F)c2CN1C[C@H]1COCCN1CC(F)(F)C(F)(F)F [Example 227, 6-(5-(difluoromethyl)-1.3,4-oxadiazol-2-yl)-4-fluoro-2-(((3S)-4-(2,2,3,3,3-pentafluoropropyl)morpholin-3-yl)-methyl)isoindolin-1-one] | 100
